Measurements from US20030087906A1, “NITROGEN SUBSTITUTED BIARYL PURINE DERIVATIVES AS POTENT ANTIPROLIFERATIVE AGENTS” (priority 2001, published 2003).
pIC50: −log10 of the molar value. Values joined by “and” are separate entries in the source; they are usually repeats but may differ in a detail not shown here. Identical values can stand only once.

Key:
[1] = tested on: K-562; assay: NCI 60-cell line growth inhibition assay; assay type: cell-based; conditions: Homo sapiens, K562; K-562 (Leukemia)
[2] = MTD (NCI in vivo evaluation, Table 8); conditions: mouse
[3] = tested on: U251; assay: NCI 60-cell line growth inhibition assay; assay type: cell-based; conditions: Homo sapiens, U-251; U251 (CNS)
[4] = tested on: M14; assay: NCI 60-cell line growth inhibition assay; assay type: cell-based; conditions: Homo sapiens; M14 (Melanoma)
[5] = tested on: IGROV1; assay: NCI 60-cell line growth inhibition assay; assay type: cell-based; conditions: Homo sapiens, IGROV-1; IGROV1 (Ovarian)
[6] = tested on: SN12C; assay: NCI 60-cell line growth inhibition assay; assay type: cell-based; conditions: Homo sapiens; SN12C (Renal)
[7] = tested on: OVCAR-8; assay: NCI 60-cell line growth inhibition assay; assay type: cell-based; conditions: Homo sapiens; OVCAR-8 (Ovarian)
[8] = tested on: HT29; assay: NCI 60-cell line growth inhibition assay; assay type: cell-based; conditions: Homo sapiens, HT-29; HT29 (Colon)
[9] = tested on: MDA-MB-231/ATCC; assay: NCI 60-cell line growth inhibition assay; assay type: cell-based; conditions: Homo sapiens; MDA-MB-231/ATCC (Breast)
[10] = tested on: MDA-MB-435; assay: NCI 60-cell line growth inhibition assay; assay type: cell-based; conditions: Homo sapiens; MDA-MB-435 (Breast)
[11] = tested on: NCI-H23; assay: NCI 60-cell line growth inhibition assay; assay type: cell-based; conditions: Homo sapiens; NCI-H23 (Non-Small Cell Lung)
[12] = tested on: UACC-257; assay: NCI 60-cell line growth inhibition assay; assay type: cell-based; conditions: Homo sapiens; UACC-257 (Melanoma)
[13] = tested on: KM12; assay: NCI 60-cell line growth inhibition assay; assay type: cell-based; conditions: Homo sapiens; KM12 (Colon)
[14] = tested on: A498; assay: NCI 60-cell line growth inhibition assay; assay type: cell-based; conditions: Homo sapiens; A498 (Renal)
[15] = tested on: MDA-N; assay: NCI 60-cell line growth inhibition assay; assay type: cell-based; conditions: Homo sapiens; MDA-N (Breast)
[16] = tested on: HCC-2998; assay: NCI 60-cell line growth inhibition assay; assay type: cell-based; conditions: Homo sapiens; HCC-2998 (Colon)
[17] = tested on: HCT-15; assay: NCI 60-cell line growth inhibition assay; assay type: cell-based; conditions: Homo sapiens; HCT-15 (Colon)
[18] = tested on: SF-539; assay: NCI 60-cell line growth inhibition assay; assay type: cell-based; conditions: Homo sapiens; SF-539 (CNS)
[19] = molecular target: T1, CyclinB/cdk1 (Homo sapiens, UniProt P06493); assay: CyclinB/cdk1 protein kinase assay (histone H1 phosphorylation); assay type: biochemical; conditions: complex immunopurified from HeLa cells; 15 μM ATP; replicate experiments
T1 construct: Monoclonal antibody against cyclinB (GNS1) is added to the supernatant; endogenous in cells

[20] = molecular target: CyclinA/cdk2 (Homo sapiens, UniProt P24941); assay: CyclinA/cdk2 protein kinase assay (histone H1 phosphorylation); conditions: IC50 CyclinA/cdk2, complex immunopurified from HeLa cells; 15 μM ATP; replicate experiments
[21] = tested on: OVCAR-5; assay: NCI 60-cell line growth inhibition assay; assay type: cell-based; conditions: Homo sapiens; OVCAR-5 (Ovarian)
[22] = tested on: SNB-75; assay: NCI 60-cell line growth inhibition assay; assay type: cell-based; conditions: Homo sapiens; SNB-75 (CNS)
[23] = tested on: Tumor Cells in Hollow Fibers; assay: NCI Hollow Fiber Assay (in vivo evaluation); conditions: for IP Score: IP fibers; for SC score: SC fibers

T1 sequence (P06493 whole entry): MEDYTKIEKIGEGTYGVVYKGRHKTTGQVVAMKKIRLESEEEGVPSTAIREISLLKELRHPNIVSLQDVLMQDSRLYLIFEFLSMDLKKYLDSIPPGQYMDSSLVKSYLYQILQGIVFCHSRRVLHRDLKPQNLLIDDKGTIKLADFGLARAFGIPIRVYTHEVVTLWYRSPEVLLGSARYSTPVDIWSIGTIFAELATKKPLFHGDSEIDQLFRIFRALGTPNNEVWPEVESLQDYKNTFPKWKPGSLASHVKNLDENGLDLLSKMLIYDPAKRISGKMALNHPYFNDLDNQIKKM
T1 sequence (P14635 whole entry partner): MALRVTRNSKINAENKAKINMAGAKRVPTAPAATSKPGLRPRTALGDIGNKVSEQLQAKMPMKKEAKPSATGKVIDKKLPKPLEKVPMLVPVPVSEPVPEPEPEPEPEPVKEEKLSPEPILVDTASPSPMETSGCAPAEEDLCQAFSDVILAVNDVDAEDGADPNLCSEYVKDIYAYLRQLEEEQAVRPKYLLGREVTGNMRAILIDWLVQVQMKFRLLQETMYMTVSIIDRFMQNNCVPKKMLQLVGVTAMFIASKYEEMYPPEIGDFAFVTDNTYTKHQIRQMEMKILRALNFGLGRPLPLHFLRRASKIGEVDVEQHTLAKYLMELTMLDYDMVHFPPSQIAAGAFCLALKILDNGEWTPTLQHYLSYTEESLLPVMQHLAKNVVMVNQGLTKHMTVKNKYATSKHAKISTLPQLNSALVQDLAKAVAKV

Compound	GI50 [1]	MTD [2]	GI50 [3]	GI50 [4]	GI50 [5]	GI50 [6]	GI50 [7]	GI50 [8]	GI50 [9]	GI50 [10]	GI50 [11]	GI50 [12]	GI50 [13]	GI50 [14]	GI50 [15]	GI50 [16]	GI50 [17]	GI50 [18]	pIC50 [19]	pIC50 [20]	further results
CC(C)n1cnc2c(NCc3ccc(-c4ccsc4)cc3)nc(N[C@H]3CC[C@H](N)CC3)nc21 [Compound 12]	< 5 nM	3.1 mg/kg	7.8 nM	< 5 nM	13 nM	< 5 nM	7.6 nM	< 5 nM	< 5 nM	< 5 nM	< 5 nM	8 nM	< 5 nM	16 nM	< 5 nM	< 5 nM	170 nM	22 nM	5.52	5.70 and 6.15 and 6.05 and 6.70	GI50 [21]: 17 nM; GI50 [22]: < 5 nM; Cell Types Killed [23]: MDA-MB-435; IP Score [23]: 26; SC score [23]: 4
CC(=O)N[C@H]1CC[C@H](Nc2nc(NCc3ccc(-c4ccccn4)cc3)c3ncn(C(C)C)c3n2)CC1 [Compound 79]	< 10 nM	6.3 mg/kg	< 10 nM	< 10 nM	< 10 nM	< 10 nM	< 10 nM	< 10 nM	< 10 nM	< 10 nM	< 10 nM	< 10 nM	< 10 nM	< 10 nM	< 10 nM	< 10 nM	< 10 nM	< 10 nM	5.52	6.30 and 6.00	GI50 [21]: < 10 nM; GI50 [22]: < 10 nM; IP Score [23]: 26; SC score [23]: 6
